# From ChEMBL document CHEMBL3525933 (Drug Metab Dispos, 2012)
# What was measured:
# [1] = Drug excretion in conventional Wistar rat feces assessed as 1,7-dihydroxyxanthone metabolite level at 400 mg/kg, po administered as single dose by HPLC-DAD analysis; type: ADME, organism-based; set-up: dose 400 mg/kg, route oral; conditions: in vivo
# [2] = MRT(0 to infinity) in streptozotocin-induced diabetic Wistar rat at 400 mg/kg, po administered as single dose by HPLC-DAD analysis; type: ADME, organism-based; set-up: dose 400 mg/kg, route oral; conditions: in vivo
# [3] = test system: Plasma; assay: Drug recovery in Wistar rat plasma at 100 ng/ml by HPLC-DAD analysis; type: ADME, cell-free
# [4] = AUC(0 to infinity) in conventional Wistar rat at 400 mg/kg, po administered as single dose by HPLC-DAD analysis; type: ADME, organism-based; set-up: time infinity, dose 400 mg/kg, route oral; conditions: plasma
# [5] = MRT(0 to t) in pseudo-germ free Wistar rat at 400 mg/kg, po administered as single dose by HPLC-DAD analysis; type: ADME, organism-based; set-up: dose 400 mg/kg, route oral; conditions: in vivo
# [6] = Drug excretion in conventional Wistar rat urine assessed as unchanged drug level at 400 mg/kg, po administered as single dose by HPLC-DAD analysis; type: ADME, organism-based; set-up: dose 400 mg/kg, route oral; conditions: in vivo
# [7] = Drug excretion in conventional Wistar rat urine assessed as 1,7-dihydroxyxanthone metabolite level at 400 mg/kg, po administered as single dose by HPLC-DAD analysis; type: ADME, organism-based; set-up: dose 400 mg/kg, route oral; conditions: in vivo
# [8] = Drug excretion in pseudo-germ free Wistar rat urine assessed as 1,7-dihydroxyxanthone metabolite level at 400 mg/kg, po administered as single dose by HPLC-DAD analysis; type: ADME, organism-based; set-up: dose 400 mg/kg, route oral; conditions: in vivo
# [9] = MRT(0 to infinity) in pseudo-germ free Wistar rat at 400 mg/kg, po administered as single dose by HPLC-DAD analysis; type: ADME, organism-based; set-up: dose 400 mg/kg, route oral; conditions: in vivo
# [10] = Elimination half life in pseudo-germ free Wistar rat at 400 mg/kg, po administered as single dose by HPLC-DAD analysis; type: ADME, organism-based; set-up: dose 400 mg/kg, route oral; conditions: in vivo, read-out: beta t1/2 (converted)
# [11] = Drug excretion in streptozotocin-induced diabetic Wistar rat feces assessed as unchanged drug level at 400 mg/kg, po administered as single dose by HPLC-DAD analysis; type: ADME, organism-based; set-up: dose 400 mg/kg, route oral; conditions: in vivo
# [12] = test system: Plasma; assay: Drug metabolism in pseudo-germ free Wistar rat plasma assessed as norathyriol metabolite formation at 400 mg/kg, po administered as single dose by HPLC-DAD analysis; type: ADME, organism-based; set-up: dose 400 mg/kg, route oral; conditions: in vivo
# [13] = AUC(0 to infinity) in streptozotocin-induced diabetic Wistar rat at 400 mg/kg, po administered as single dose by HPLC-DAD analysis; type: ADME, organism-based; set-up: time infinity, dose 400 mg/kg, route oral; conditions: plasma
# [14] = Drug excretion in conventional Wistar rat feces assessed as unchanged drug level at 400 mg/kg, po administered as single dose by HPLC-DAD analysis; type: ADME, organism-based; set-up: dose 400 mg/kg, route oral; conditions: in vivo
# [15] = Drug excretion in pseudo-germ free Wistar rat feces assessed as unchanged drug level at 400 mg/kg, po administered as single dose by HPLC-DAD analysis; type: ADME, organism-based; set-up: dose 400 mg/kg, route oral; conditions: in vivo
# [16] = test system: Plasma; assay: Drug level in streptozotocin-induced diabetic Wistar rat plasma treated with mangiferin at 400 mg/kg, po administered as single dose by HPLC-DAD analysis; type: ADME, organism-based; set-up: dose 400 mg/kg, route oral; conditions: in vivo
# [17] = test system: Plasma; assay: Stability in Wistar rat plasma measured within three freeze thaw cycles by HPLC-DAD analysis; type: ADME, cell-free
# [18] = Cmax in streptozotocin-induced diabetic Wistar rat at 400 mg/kg, po administered as single dose by HPLC-DAD analysis; type: ADME, organism-based; set-up: dose 400 mg/kg, route oral; conditions: in vivo
# [19] = test system: Plasma; assay: Stability in Wistar rat plasma measured after storage at -80 degC for 20 days by HPLC-DAD analysis; type: ADME, cell-free; conditions: 480 h
# [20] = Drug excretion in streptozotocin-induced diabetic Wistar rat urine assessed as unchanged drug level at 400 mg/kg, po administered as single dose by HPLC-DAD analysis; type: ADME, organism-based; set-up: dose 400 mg/kg, route oral; conditions: in vivo
# [21] = AUC(0 to infinity) in pseudo-germ free Wistar rat at 400 mg/kg, po administered as single dose by HPLC-DAD analysis; type: ADME, organism-based; set-up: time infinity, dose 400 mg/kg, route oral; conditions: plasma
# [22] = test system: Plasma; assay: Stability in Wistar rat plasma measured for 24 hrs at room temperature by HPLC-DAD analysis; type: ADME, cell-free
# [23] = Drug excretion in streptozotocin-induced diabetic Wistar rat feces assessed as norathyriol metabolite level at 400 mg/kg, po administered as single dose by HPLC-DAD analysis; type: ADME, organism-based; set-up: dose 400 mg/kg, route oral; conditions: in vivo
# [24] = test system: Plasma; assay: Drug metabolism in pseudo-germ free Wistar rat plasma assessed as 1,7-dihydroxyxanthone metabolite formation at 400 mg/kg, po administered as single dose by HPLC-DAD analysis; type: ADME, organism-based; set-up: dose 400 mg/kg, route oral; conditions: in vivo
# [25] = AUC(0 to t) in streptozotocin-induced diabetic Wistar rat at 400 mg/kg, po administered as single dose by HPLC-DAD analysis; type: ADME, organism-based; set-up: dose 400 mg/kg, route oral; conditions: plasma
# [26] = test system: Plasma; assay: Drug metabolism in streptozotocin-induced diabetic Wistar rat plasma assessed as 1,7-dihydroxyxanthone metabolite formation at 400 mg/kg, po administered as single dose by HPLC-DAD analysis; type: ADME, organism-based; set-up: dose 400 mg/kg, route oral; conditions: in vivo
# [27] = test system: Plasma; assay: Drug recovery in Wistar rat plasma at 2000 ng/ml by HPLC-DAD analysis; type: ADME, cell-free
# [28] = test system: Plasma; assay: Drug uptake in streptozotocin-induced diabetic Wistar rat plasma at 400 mg/kg, po administered as single dose by HPLC-DAD analysis; type: ADME, organism-based; set-up: dose 400 mg/kg, route oral; conditions: in vivo
# [29] = Tmax in streptozotocin-induced diabetic Wistar rat at 400 mg/kg, po administered as single dose by HPLC-DAD analysis; type: ADME, organism-based; set-up: dose 400 mg/kg, route oral; conditions: in vivo
smiles,measurement,setting,value
O=c1c2cc(O)c(O)cc2oc2cc(O)c([C@@H]3O[C@H](CO)[C@@H](O)[C@H](O)[C@H]3O)c(O)c12 [MANGIFERIN],Drug excretion,[1],metabolite_not_detected
same,MRT inf,[2],5.45 h
same,Drug recovery,[3],78.4%
same,AUC(0-inf),[4],3820 ng·h/mL
same,MRT last,[5],7.42 h
same,Drug excretion,[6],metabolite_detected
same,Drug excretion,[7],metabolite_not_detected
same,Drug excretion,[8],metabolite_not_detected
same,MRT inf,[9],7.52 h
same,half-life,[10],2.59 h
same,Drug excretion,[11],metabolite_detected
same,Drug metabolism,[12],metabolite_not_detected
same,AUC(0-inf),[13],8950 ng·h/mL
same,Drug excretion,[14],metabolite_detected
same,Drug excretion,[15],metabolite_detected
same,Drug metabolism,[16],metabolite_detected
same,Stability,[17],Stable
same,Cmax,[18],2000 ng/mL
same,Stability,[19],Stable
same,Drug excretion,[20],metabolite_detected
same,AUC(0-inf),[21],4340 ng·h/mL
same,Stability,[22],Stable
same,Drug excretion,[23],metabolite_detected
same,Drug metabolism,[24],metabolite_not_detected
same,AUC(0-t),[25],8930 ng·h/mL
same,Drug metabolism,[26],metabolite_not_detected
same,Drug recovery,[27],75.8%
same,Drug uptake,[28],Active
same,Tmax,[29],2.25 h
